Source: the supplement of paper PMC10307832

What was measured:
Assay in all cases: relative viability (nuclei count vs DMSO), 5 days (fraction); higher = more cells survive
Metformin + Luminespib = compound: CN(C)C(=N)NC(=N)N [Metformin] + CCNC(=O)c1noc(-c2cc(C(C)C)c(O)cc2O)c1-c1ccc(CN2CCOCC2)cc1 [Luminespib] (partner 0.01 µM)
In short: (§1)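 Values are medians from duplicate plates. Each reflects relative viability, defined as the nuclei count of treated wells over that of vehicle wells. Lung cancer cell lines in 1536-well plates were pin-tool dosed one day after seeding with one drug alone or with a fixed anchor-drug dose plus five library-drug doses (not always all listed) in √10 steps, then fixed, stained and imaged at 4× after 5 days.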

Metformin + Olaparib = compound: CN(C)C(=N)NC(=N)N [Metformin] + O=C(c1cc(Cc2n[nH]c(=O)c3ccccc23)ccc1F)N1CCN(C(=O)C2CC2)CC1 [Olaparib] (partner 8 µM)
In short: as §1

Apatinib + Pictilisib = compound: N#CC1(c2ccc(NC(=O)c3cccnc3NCc3ccncc3)cc2)CCCC1 [Apatinib] + CS(=O)(=O)N1CCN(Cc2cc3nc(-c4cccc5[nH]ncc45)nc(N4CCOCC4)c3s2)CC1 [Pictilisib] (partner 1 µM)
In short: as §1

Apatinib + AZD7762 = compound: N#CC1(c2ccc(NC(=O)c3cccnc3NCc3ccncc3)cc2)CCCC1 [Apatinib] + NC(=O)Nc1cc(-c2cccc(F)c2)sc1C(=O)N[C@H]1CCCNC1 [AZD7762] (partner 0.2 µM)
In short: as §1

With NCI-H23 the relative viability (Metformin + Luminespib; first compound 10 µM) was 0.207, the relative viability (Metformin + Luminespib; first compound 31.62 µM) was 0.244 and the relative viability (Metformin + Luminespib; first compound 100 µM) was 0.218. The relative viability (Metformin + Luminespib; first compound 316.23 µM) was 0.272, the relative viability (Metformin + Luminespib; first compound 1000 µM) was 0.214 and the relative viability (Metformin + Olaparib; first compound 10 µM) was 0.252. It also gave a relative viability (Metformin + Olaparib; first compound 31.62 µM) of 0.299, a relative viability (Metformin + Olaparib; first compound 100 µM) of 0.279 and a relative viability (Metformin + Olaparib; first compound 316.23 µM) of 0.26. For the same cell line, the relative viability (Metformin + Olaparib; first compound 1000 µM) was 0.293, the relative viability (Apatinib + Pictilisib; first compound 0.08 µM) was 0.547 and the relative viability (Apatinib + Pictilisib; first compound 0.253 µM) was 0.522. It also gave a relative viability (Apatinib + Pictilisib; first compound 0.8 µM) of 0.458, a relative viability (Apatinib + Pictilisib; first compound 2.53 µM) of 0.426 and a relative viability (Apatinib + Pictilisib; first compound 8 µM) of 0.492. It also gave a relative viability (Apatinib + AZD7762; first compound 0.08 µM) of 0.275, a relative viability (Apatinib + AZD7762; first compound 0.253 µM) of 0.193 and a relative viability (Apatinib + AZD7762; first compound 0.8 µM) of 0.21. It also gave a relative viability (Apatinib + AZD7762; first compound 2.53 µM) of 0.134 and a relative viability (Apatinib + AZD7762; first compound 8 µM) of 0.108.

NCI-H647 gave a relative viability (Metformin + Luminespib; first compound 10 µM) of 0.187, a relative viability (Metformin + Luminespib; first compound 31.62 µM) of 0.154 and a relative viability (Metformin + Luminespib; first compound 100 µM) of 0.278. For the same cell line, the relative viability (Metformin + Luminespib; first compound 316.23 µM) was 0.16, the relative viability (Metformin + Luminespib; first compound 1000 µM) was 0.113 and the relative viability (Metformin + Olaparib; first compound 10 µM) was 0.375. It also gave a relative viability (Metformin + Olaparib; first compound 31.62 µM) of 0.394, a relative viability (Metformin + Olaparib; first compound 100 µM) of 0.415 and a relative viability (Metformin + Olaparib; first compound 316.23 µM) of 0.44. It also gave a relative viability (Metformin + Olaparib; first compound 1000 µM) of 0.375, a relative viability (Apatinib + Pictilisib; first compound 0.08 µM) of 0.492 and a relative viability (Apatinib + Pictilisib; first compound 0.253 µM) of 0.5. For the same cell line, the relative viability (Apatinib + Pictilisib; first compound 0.8 µM) was 0.419, the relative viability (Apatinib + Pictilisib; first compound 2.53 µM) was 0.349 and the relative viability (Apatinib + Pictilisib; first compound 8 µM) was 0.395. It also gave a relative viability (Apatinib + AZD7762; first compound 0.253 µM) of 0.482, a relative viability (Apatinib + AZD7762; first compound 0.8 µM) of 0.372 and a relative viability (Apatinib + AZD7762; first compound 2.53 µM) of 0.341. For the same cell line, the relative viability (Apatinib + AZD7762; first compound 8 µM) was 0.344.

With LXF-289 the relative viability (Metformin + Luminespib; first compound 10 µM) was 0.693, the relative viability (Metformin + Luminespib; first compound 31.62 µM) was 0.683 and the relative viability (Metformin + Luminespib; first compound 100 µM) was 0.724. The relative viability (Metformin + Luminespib; first compound 316.23 µM) was 0.625, the relative viability (Metformin + Luminespib; first compound 1000 µM) was 0.621 and the relative viability (Metformin + Olaparib; first compound 10 µM) was 0.929. For the same cell line, the relative viability (Metformin + Olaparib; first compound 31.62 µM) was 0.922, the relative viability (Metformin + Olaparib; first compound 100 µM) was 0.829 and the relative viability (Metformin + Olaparib; first compound 316.23 µM) was 0.917. The relative viability (Metformin + Olaparib; first compound 1000 µM) was 0.93, the relative viability (Apatinib + Pictilisib; first compound 0.08 µM) was 0.838 and the relative viability (Apatinib + Pictilisib; first compound 0.253 µM) was 0.828. It also gave a relative viability (Apatinib + Pictilisib; first compound 0.8 µM) of 0.76, a relative viability (Apatinib + Pictilisib; first compound 2.53 µM) of 0.714 and a relative viability (Apatinib + Pictilisib; first compound 8 µM) of 0.72. It also gave a relative viability (Apatinib + AZD7762; first compound 0.08 µM) of 1.13, a relative viability (Apatinib + AZD7762; first compound 0.253 µM) of 1.1 and a relative viability (Apatinib + AZD7762; first compound 0.8 µM) of 1.09. It also gave a relative viability (Apatinib + AZD7762; first compound 2.53 µM) of 1.02 and a relative viability (Apatinib + AZD7762; first compound 8 µM) of 1.02.

PC-3 [JPC-3] showed a relative viability (Metformin + Luminespib; first compound 10 µM) of 0.686, a relative viability (Metformin + Luminespib; first compound 31.62 µM) of 0.68 and a relative viability (Metformin + Luminespib; first compound 100 µM) of 0.73. The relative viability (Metformin + Luminespib; first compound 316.23 µM) was 0.663, the relative viability (Metformin + Luminespib; first compound 1000 µM) was 0.74 and the relative viability (Metformin + Olaparib; first compound 10 µM) was 0.95. The relative viability (Metformin + Olaparib; first compound 31.62 µM) was 0.932, the relative viability (Metformin + Olaparib; first compound 316.23 µM) was 0.741 and the relative viability (Metformin + Olaparib; first compound 1000 µM) was 0.69. The relative viability (Apatinib + Pictilisib; first compound 0.08 µM) was 0.781, the relative viability (Apatinib + Pictilisib; first compound 0.253 µM) was 0.741 and the relative viability (Apatinib + Pictilisib; first compound 0.8 µM) was 0.594. For the same cell line, the relative viability (Apatinib + Pictilisib; first compound 2.53 µM) was 0.605, the relative viability (Apatinib + Pictilisib; first compound 8 µM) was 0.683 and the relative viability (Apatinib + AZD7762; first compound 0.253 µM) was 0.745. The relative viability (Apatinib + AZD7762; first compound 0.8 µM) was 0.672, the relative viability (Apatinib + AZD7762; first compound 2.53 µM) was 0.63 and the relative viability (Apatinib + AZD7762; first compound 8 µM) was 0.688.

Cell Line H3255 has a relative viability (Metformin + Luminespib; first compound 10 µM) of 0.858, a relative viability (Metformin + Luminespib; first compound 31.62 µM) of 1.01 and a relative viability (Metformin + Luminespib; first compound 100 µM) of 0.88. The relative viability (Metformin + Luminespib; first compound 316.23 µM) was 0.657, the relative viability (Metformin + Luminespib; first compound 1000 µM) was 0.867 and the relative viability (Metformin + Olaparib; first compound 10 µM) was 0.487. For the same cell line, the relative viability (Metformin + Olaparib; first compound 31.62 µM) was 0.594, the relative viability (Metformin + Olaparib; first compound 100 µM) was 0.523 and the relative viability (Metformin + Olaparib; first compound 316.23 µM) was 0.441. The relative viability (Metformin + Olaparib; first compound 1000 µM) was 0.402, the relative viability (Apatinib + Pictilisib; first compound 0.08 µM) was 0.448 and the relative viability (Apatinib + Pictilisib; first compound 0.253 µM) was 0.454. For the same cell line, the relative viability (Apatinib + Pictilisib; first compound 0.8 µM) was 0.388, the relative viability (Apatinib + Pictilisib; first compound 2.53 µM) was 0.436 and the relative viability (Apatinib + Pictilisib; first compound 8 µM) was 0.447. For the same cell line, the relative viability (Apatinib + AZD7762; first compound 0.08 µM) was 0.824, the relative viability (Apatinib + AZD7762; first compound 0.253 µM) was 0.882 and the relative viability (Apatinib + AZD7762; first compound 0.8 µM) was 0.851. For the same cell line, the relative viability (Apatinib + AZD7762; first compound 2.53 µM) was 0.736 and the relative viability (Apatinib + AZD7762; first compound 8 µM) was 0.718.

Work on NCI-H2170 yielded a relative viability (Metformin + Luminespib; first compound 10 µM) of 0.571, a relative viability (Metformin + Luminespib; first compound 31.62 µM) of 0.677 and a relative viability (Metformin + Luminespib; first compound 100 µM) of 0.766. For the same cell line, the relative viability (Metformin + Luminespib; first compound 316.23 µM) was 0.68, the relative viability (Metformin + Luminespib; first compound 1000 µM) was 0.632 and the relative viability (Metformin + Olaparib; first compound 10 µM) was 0.45. For the same cell line, the relative viability (Metformin + Olaparib; first compound 31.62 µM) was 0.468, the relative viability (Metformin + Olaparib; first compound 100 µM) was 0.536 and the relative viability (Metformin + Olaparib; first compound 316.23 µM) was 0.487. The relative viability (Metformin + Olaparib; first compound 1000 µM) was 0.491, the relative viability (Apatinib + Pictilisib; first compound 0.08 µM) was 0.329 and the relative viability (Apatinib + Pictilisib; first compound 0.253 µM) was 0.301. The relative viability (Apatinib + Pictilisib; first compound 0.8 µM) was 0.304, the relative viability (Apatinib + Pictilisib; first compound 2.53 µM) was 0.306 and the relative viability (Apatinib + Pictilisib; first compound 8 µM) was 0.315. For the same cell line, the relative viability (Apatinib + AZD7762; first compound 0.08 µM) was 0.871, the relative viability (Apatinib + AZD7762; first compound 0.253 µM) was 0.901 and the relative viability (Apatinib + AZD7762; first compound 0.8 µM) was 0.719. The relative viability (Apatinib + AZD7762; first compound 2.53 µM) was 0.721 and the relative viability (Apatinib + AZD7762; first compound 8 µM) was 0.706.
